Results from patent US20250352458A1, “IMPROVEMENTS IN OR RELATING TO EXTRACTS” (Givaudan SA, priority 2020, published 2025).
Several values for one entry are separate records, joined by “and”; a condition that tells them apart may be missing. Equal entries are not always repeated.

Tests used:
[1] = test system: H. influenzae (ATCC 49766); experiment: MIC evaluation, optical density and percentage of inhibition; type: cell-based, Haemophilus influenza
From the text: The minimum inhibitory concentration of the following active ingredients has been assessed: • Mangifera indica extract (in propanediol/water 75/25); • Vehicule (propanediol/water 75/25, expressed as Activolo3-75%); • “Pool Mangiferin” which is the pure molecule mangiferin at the same concentration in the Mangifera indica extract in propanediol/water 75/25. • “Pool Mangifera” with is the mix of the 4 molecules (mangiferin, maclurin-C-glucoside, irifluophenone-C-glucoside, gallotanin) at the same concentration in the Mangifera indica extract in propane-diol/water 75/25.
H. influenzae (ATCC 49766) was cultured in Mueller Hinton broth as recommended by ATCC with 5% CO2. The Bacterial concentration was adjusted in Mueller Hinton broth to obtain a solution at 1.106 CFU/ml (5.104 CFU/well) (launch of culture at D-2). […] Two day later, the inhibition of H. influenzae was evaluated using Colony counter IUL instruments, flash and go model (reading at D2).
Concentrations are expressed in % (m/v).
The diluted bacterial suspension was added to columns 2 to 12. RCB medium was added to column 1 as negative control.
Optical density was determined, which correlates to the bacterial growth. Thereafter, an inhibition value (%) was determined for each condition using the following formula: […]
The percentage of inhibition must be higher or equal than 90% to reach the MIC.

[2] = test system: P. acnes (ATCC 6919); experiment: TKC (Time Kill Curve) determination; type: cell-based, Propionibacterium acnes
Experimental: Each strain was plated on appropriate plate and grown in the appropriate conditions. Colonies were resuspended in 5 mL of PBS to obtain a 0.5 McFarland O D (approximately 1.10^8 cfu/ml).After two days, the bacterial concentrations we readjusted in reinforced clostridial broth to obtain a solution at 1.10^6 CFU/ml (5.10^4 CFU/well). […] Bacteria quantification has been repeated at […]. For bacteria quantification a Colony counter IUL instruments, flash and go model was used. A Time Kill Curve (TKC) was performed to determine the effect of the active versus placebo on the growth of Propionibacterium acnes.

[3] = test system: C. granulosum (ATCC 25564); experiment: MIC evaluation, optical density and percentage of inhibition; type: cell-based, Cutibacterium granulosum
From the text: (§1) The minimum inhibitory concentration of the following active ingredients has been assessed: • Mangifera indica extract (in propanediol/water 75/25); • Vehicule (propanediol/water 75/25, expressed as Activolo3-75%); • “Pool Mangiferin” which is the pure molecule mangiferin at the same concentration in the Mangifera indica extract in propanediol/water 75/25. • “Pool Mangifera” with is the mix of the 4 molecules (mangiferin, maclurin-C-glucoside, irifluophenone-C-glucoside, gallotanin) at the same concentration in the Mangifera indica extract in propane-diol/water 75/25. […] After two days, the bacterial concentration was adjusted in reinforced clostridial broth to obtain a solution at 1.106 CFU/ml (5.104 CFU/well). […] Concentrations are expressed in % (m/v). […] The diluted bacterial suspension was added to columns 2 to 12. RCB medium was added to column 1 as negative control. Optical density was determined, which correlates to the bacterial growth.

[4] = test system: Propionibacterium acnes (C. acnes) phylotype IA1 ATCC 6919; experiment: as above; type: cell-based
From the text: as §1

[5] = 0.39 10^−2 % (m/v), plate col. 12
[6] = 0.78 10^−2 % (m/v), plate col. 11
[7] = 1.56 10^−2 % (m/v), plate col. 10
[8] = 3.1310^−2 % (m/v), plate col. 9
[9] = 6.25 10^−2 % (m/v), plate col. 8
[10] = 12.5 10^−2 % (m/v), plate col. 7
[11] = 25.0 10^−2 % (m/v), plate col. 6

In the case of O=c1c2cc(O)c(O)cc2oc2cc(O)c([C@@H]3O[C@H](CO)[C@@H](O)[C@H](O)[C@H]3O)c(O)c12 [pool mangiferin], the “Optical density, H. influenza” value [1, 5] is reported as 0.190 and 0.197, the “Percentage of inhibition, H. influenza” value [1, 5] is reported as 1.9% and 0% and the “Optical density, H. influenza” value ([1]; 0.5% (m/v), plate col. 5) is reported as 0.193 and 0.191. For the same molecule, the “Percentage of inhibition, H. influenza” value ([1]; 0.5% (m/v), plate col. 5) was −0.3% and 1.2%, the “Optical density, H. influenza” value [1, 6] was 0.188 and 0.197 and the “Percentage of inhibition, H. influenza” value [1, 6] was 3.4% and 0%. For the same molecule, the “Optical density, H. influenza” value ([1]; 1% (m/v), plate col. 4) was 0.190 and 0.183, the “Percentage of inhibition, H. influenza” value ([1]; 1% (m/v), plate col. 4) was 1.9% and 7.0% and the “Optical density, H. influenza” value [1, 7] was 0.185 and 0.196. The “Percentage of inhibition, H. influenza” value [1, 7] was 5.5% and 0%, the “antibacterial effect against H. influenza (in words)” value ([1]; 2%) was “no antibacterial effect” and the “Optical density, H. influenza” value ([1]; 2% (m/v), plate col. 3) was 0.184 and 0.181. The “Percentage of inhibition, H. influenza” value ([1]; 2% (m/v), plate col. 3) was 6.3% and 8.4%, the “Optical density, H. influenza” value [1, 8] was 0.180 and 0.193 and the “Percentage of inhibition, H. influenza” value [1, 8] was 9.1% and 0%. The “Optical density, H. influenza” value [1, 9] was 0.185 and 0.197, the “Percentage of inhibition, H. influenza” value [1, 9] was 5.5% and 0% and the “Optical density, H. influenza” value [1, 10] was 0.187 and 0.195. The “Percentage of inhibition, H. influenza” value [1, 10] was 4.1% and 0%, the “Optical density, H. influenza” value [1, 11] was 0.189 and 0.196 and the “Percentage of inhibition, H. influenza” value [1, 11] was 2.6% and 0%. The “Time Kill Curve P. acnes, bacteria quantification” value (from here on “Time Kill Curve P. acnes”) ([2]; 0.5%, T0) was 6.0 Log10 CFU/ml, the “Time Kill Curve P. acnes” value ([2]; 0.5%, T + 4 h) was 6.2 Log10 CFU/ml and the “Time Kill Curve P. acnes” value ([2]; 0.5%, T + 8 h) was 5.7 Log10 CFU/ml. The “Time Kill Curve P. acnes” value ([2]; 0.5%, T + 24 h) was 6.6 Log10 CFU/ml, the “Time Kill Curve P. acnes” value ([2]; 0.5%, T + 32 h) was 6.7 Log10 CFU/ml and the “Time Kill Curve P. acnes” value ([2]; 0.5%, T + 48 h) was 7.8 Log10 CFU/ml. The “Time Kill Curve P. acnes” value ([2]; 1%, T0) was 6.0 Log10 CFU/ml, the “Time Kill Curve P. acnes” value ([2]; 1%, T + 4 h) was 6.0 Log10 CFU/ml and the “Time Kill Curve P. acnes” value ([2]; 1%, T + 8 h) was 5.8 Log10 CFU/ml. The “Time Kill Curve P. acnes” value ([2]; 1%, T + 24 h) was 6.5 Log10 CFU/ml, the “Time Kill Curve P. acnes” value ([2]; 1%, T + 32 h) was 6.7 Log10 CFU/ml and the “Time Kill Curve P. acnes” value ([2]; 1%, T + 48 h) was 7.8 Log10 CFU/ml. The “Time Kill Curve P. acnes” value ([2]; 2%, T0) was 6.0 Log10 CFU/ml, the “Time Kill Curve P. acnes” value ([2]; 2%, T + 4 h) was 5.7 Log10 CFU/ml and the “Time Kill Curve P. acnes” value ([2]; 2%, T + 8 h) was 5.7 Log10 CFU/ml. The “Time Kill Curve P. acnes” value ([2]; 2%, T + 24 h) was 6.5 Log10 CFU/ml, the “Time Kill Curve P. acnes” value ([2]; 2%, T + 32 h) was 6.7 Log10 CFU/ml and the “Time Kill Curve P. acnes” value ([2]; 2%, T + 48 h) was 7.8 Log10 CFU/ml. The “Optical density, C. granulosum” value [3, 5] was 0.546 and 0.539, the “Percentage of inhibition, C. granulosum” value [3, 5] was 0.5% and 1.9% and the “Optical density, C. granulosum” value ([3]; 0.5% (m/v), plate col. 5) was 0.449 and 0.457. The “Percentage of inhibition, C. granulosum” value ([3]; 0.5% (m/v), plate col. 5) was 19.9% and 18.3%, the “Optical density, C. granulosum” value [3, 6] was 0.561 and the “Percentage of inhibition, C. granulosum” value [3, 6] was 0%. The “Optical density, C. granulosum” value ([3]; 1% (m/v), plate col. 4) was 0.417 and 0.419, the “Percentage of inhibition, C. granulosum” value ([3]; 1% (m/v), plate col. 4) was 26.3% and 25.9% and the “Optical density, C. granulosum” value [3, 7] was 0.573 and 0.570. For the same molecule, the “Percentage of inhibition, C. granulosum” value [3, 7] was 0%, the “Optical density, C. granulosum” value ([3]; 2% (m/v), plate col. 3) was 0.391 and 0.398 and the “Percentage of inhibition, C. granulosum” value ([3]; 2% (m/v), plate col. 3) was 31.5% and 30.1%. The “Optical density, C. granulosum” value [3, 8] was 0.592 and 0.558, the “Percentage of inhibition, C. granulosum” value [3, 8] was 0% and the “Optical density, C. granulosum” value [3, 9] was 0.545. For the same molecule, the “Percentage of inhibition, C. granulosum” value [3, 9] was 0.7%, the “Optical density, C. granulosum” value [3, 10] was 0.505 and 0.520 and the “Percentage of inhibition, C. granulosum” value [3, 10] was 8.7% and 5.7%. For the same molecule, the “Optical density, C. granulosum” value [3, 11] was 0.479 and 0.478, the “Percentage of inhibition, C. granulosum” value [3, 11] was 13.9% and 14.1% and the “antibacterial effect against C. granulosum (in words)” value ([3]; at 2%) was “slight antibacterial effect”. For the same molecule, the “Optical density, C. acnes” value [4, 5] was 0.238 and 0.246, the “Percentage of inhibition, C. acnes” value [4, 5] was 2.0% and 0% and the “Optical density, C. acnes” value ([4]; 0.5% (m/v), plate col. 5) was 0.242 and 0.245. The “Percentage of inhibition, C. acnes” value ([4]; 0.5% (m/v), plate col. 5) was 0%, the “Optical density, C. acnes” value [4, 6] was 0.244 and 0.245 and the “Percentage of inhibition, C. acnes” value [4, 6] was 0%. For the same molecule, the “Optical density, C. acnes” value ([4]; 1% (m/v), plate col. 4) was 0.241, the “Percentage of inhibition, C. acnes” value ([4]; 1% (m/v), plate col. 4) was 0% and the “Optical density, C. acnes” value [4, 7] was 0.243 and 0.242. For the same molecule, the “Percentage of inhibition, C. acnes” value [4, 7] was 0%, the “antibacterial effect against P. acnes (in words)” value ([4]; 2%) was “no antibacterial effect” and the “Optical density, C. acnes” value ([4]; 2% (m/v), plate col. 3) was 0.236 and 0.234. The “Percentage of inhibition, C. acnes” value ([4]; 2% (m/v), plate col. 3) was 3.0% and 4.1%, the “Optical density, C. acnes” value [4, 8] was 0.244 and the “Percentage of inhibition, C. acnes” value [4, 8] was 0%. For the same molecule, the “Optical density, C. acnes” value [4, 9] was 0.242 and 0.245, the “Percentage of inhibition, C. acnes” value [4, 9] was 0% and the “Optical density, C. acnes” value [4, 10] was 0.245 and 0.244. The “Percentage of inhibition, C. acnes” value [4, 10] was 0%, the “Optical density, C. acnes” value [4, 11] was 0.245 and 0.243 and the “Percentage of inhibition, C. acnes” value [4, 11] was 0%.
